Reference: publication PMC5513037, “Examining the influence of specificity ligands and ATP-competitive ligands on the overall effectiveness of bivalent kinase inhibitors” (Proteome Science, 2017)

Legend:
Experiment in all cases: KAM-matrix competition in K562 lysate;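 as to 0.001 uM KAM: median log10 fold change of treatment over DMSO control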;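 as to 0.01 uM KAM: median log10 fold change of treatment over DMSO control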;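 as to 0.1 uM KAM: median log10 fold change of treatment over DMSO control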;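 as to 1 uM KAM: median log10 fold change of treatment over DMSO control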;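 as to 10 uM KAM: median log10 fold change of treatment over DMSO control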
Type in all cases: binding
TRRAP = molecular target: T1, TRRAP (Homo sapiens, UniProt Q9Y4A5);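 as to 0.001 uM KAM: median log10 fold change of treatment over DMSO control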;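 as to 0.01 uM KAM: median log10 fold change of treatment over DMSO control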;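 as to 0.1 uM KAM: median log10 fold change of treatment over DMSO control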;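 as to 1 uM KAM: median log10 fold change of treatment over DMSO control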;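 as to 10 uM KAM: median log10 fold change of treatment over DMSO control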
T1 construct: endogenous in cells; host or cells: K562
Protocol: (§1) Supplement 12953_2017_125_MOESM1_ESM.zip/MS_Supp Info.xlsx, sheet "KAM" | column: 10 uM KAM; 1 uM KAM; 0.1 uM KAM; 0.01 uM KAM; 0.001 uM KAM; RB50

IRAK1 = molecular target: T2, IRAK1 (Homo sapiens, UniProt P51617);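 as to 0.001 uM KAM: median log10 fold change of treatment over DMSO control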;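 as to 0.01 uM KAM: median log10 fold change of treatment over DMSO control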;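 as to 0.1 uM KAM: median log10 fold change of treatment over DMSO control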;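 as to 1 uM KAM: median log10 fold change of treatment over DMSO control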;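 as to 10 uM KAM: median log10 fold change of treatment over DMSO control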
T2 construct: endogenous in cells; host or cells: K562
Protocol: as §1

DDR1 = molecular target: T3, DDR1 (Homo sapiens, UniProt Q08345)
T3 construct: endogenous in cells; host or cells: K562
Protocol: as §1

MAP4K4 = molecular target: T4, MAP4K4 (Homo sapiens, UniProt O95819);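 as to 0.001 uM KAM: median log10 fold change of treatment over DMSO control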;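 as to 0.01 uM KAM: median log10 fold change of treatment over DMSO control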;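 as to 0.1 uM KAM: median log10 fold change of treatment over DMSO control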;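 as to 1 uM KAM: median log10 fold change of treatment over DMSO control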;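 as to 10 uM KAM: median log10 fold change of treatment over DMSO control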
T4 construct: endogenous in cells; host or cells: K562
T4 sequence (O95819 whole entry): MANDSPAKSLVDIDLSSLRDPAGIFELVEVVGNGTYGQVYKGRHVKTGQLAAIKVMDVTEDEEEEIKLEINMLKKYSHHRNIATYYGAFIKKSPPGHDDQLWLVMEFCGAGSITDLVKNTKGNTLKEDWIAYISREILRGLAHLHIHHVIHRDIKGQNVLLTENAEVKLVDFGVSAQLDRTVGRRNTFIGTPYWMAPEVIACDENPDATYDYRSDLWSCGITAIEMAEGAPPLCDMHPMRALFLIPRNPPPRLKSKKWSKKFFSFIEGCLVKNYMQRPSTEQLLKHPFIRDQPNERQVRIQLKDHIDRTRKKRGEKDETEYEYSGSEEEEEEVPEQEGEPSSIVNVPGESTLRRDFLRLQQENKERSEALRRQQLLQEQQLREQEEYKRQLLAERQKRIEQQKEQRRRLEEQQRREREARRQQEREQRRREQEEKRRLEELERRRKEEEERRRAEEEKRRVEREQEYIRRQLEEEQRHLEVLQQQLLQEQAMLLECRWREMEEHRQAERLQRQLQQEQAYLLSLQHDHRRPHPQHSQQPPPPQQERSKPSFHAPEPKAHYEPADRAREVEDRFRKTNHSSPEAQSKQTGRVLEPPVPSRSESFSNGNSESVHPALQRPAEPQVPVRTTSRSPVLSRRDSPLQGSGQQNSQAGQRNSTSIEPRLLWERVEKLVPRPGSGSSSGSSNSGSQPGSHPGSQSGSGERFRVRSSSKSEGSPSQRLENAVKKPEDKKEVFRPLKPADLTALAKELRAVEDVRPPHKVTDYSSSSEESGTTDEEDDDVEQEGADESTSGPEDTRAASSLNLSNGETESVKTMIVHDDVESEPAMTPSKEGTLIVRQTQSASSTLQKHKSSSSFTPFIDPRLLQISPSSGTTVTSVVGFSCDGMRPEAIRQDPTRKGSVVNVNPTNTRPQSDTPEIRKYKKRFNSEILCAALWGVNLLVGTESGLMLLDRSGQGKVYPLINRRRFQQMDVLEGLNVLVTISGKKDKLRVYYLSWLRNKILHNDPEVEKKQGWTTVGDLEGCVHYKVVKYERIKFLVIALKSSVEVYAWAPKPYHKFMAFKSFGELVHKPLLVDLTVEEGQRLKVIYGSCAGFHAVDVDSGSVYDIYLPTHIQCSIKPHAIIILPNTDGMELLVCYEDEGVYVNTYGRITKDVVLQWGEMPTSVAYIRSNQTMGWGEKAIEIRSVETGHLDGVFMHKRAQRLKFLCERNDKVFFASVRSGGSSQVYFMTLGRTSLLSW
Protocol: as §1

STK38 = molecular target: T5, STK38 (Homo sapiens, UniProt Q15208)
T5 construct: endogenous in cells; host or cells: K562
T5 sequence (Q15208 whole entry): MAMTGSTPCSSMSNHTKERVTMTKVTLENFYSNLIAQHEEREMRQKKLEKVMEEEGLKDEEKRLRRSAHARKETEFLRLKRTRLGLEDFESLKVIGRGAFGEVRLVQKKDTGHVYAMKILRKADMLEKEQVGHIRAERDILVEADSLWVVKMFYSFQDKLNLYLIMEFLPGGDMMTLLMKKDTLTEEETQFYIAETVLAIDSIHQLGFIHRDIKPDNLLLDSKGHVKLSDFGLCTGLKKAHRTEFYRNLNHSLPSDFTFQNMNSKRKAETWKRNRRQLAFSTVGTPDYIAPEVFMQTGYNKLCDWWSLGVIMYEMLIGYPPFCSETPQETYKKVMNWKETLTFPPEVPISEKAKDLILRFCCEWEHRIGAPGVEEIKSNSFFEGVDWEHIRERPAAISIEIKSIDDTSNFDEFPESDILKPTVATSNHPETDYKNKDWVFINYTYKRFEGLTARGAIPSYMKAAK
Protocol: as §1

LRRK2 = molecular target: T6, LRRK2 (Homo sapiens, UniProt Q5S007);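 as to 0.001 uM KAM: median log10 fold change of treatment over DMSO control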;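 as to 0.01 uM KAM: median log10 fold change of treatment over DMSO control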;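 as to 0.1 uM KAM: median log10 fold change of treatment over DMSO control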;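 as to 1 uM KAM: median log10 fold change of treatment over DMSO control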;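 as to 10 uM KAM: median log10 fold change of treatment over DMSO control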
T6 construct: endogenous in cells; host or cells: K562
T6 sequence (Q5S007 whole entry): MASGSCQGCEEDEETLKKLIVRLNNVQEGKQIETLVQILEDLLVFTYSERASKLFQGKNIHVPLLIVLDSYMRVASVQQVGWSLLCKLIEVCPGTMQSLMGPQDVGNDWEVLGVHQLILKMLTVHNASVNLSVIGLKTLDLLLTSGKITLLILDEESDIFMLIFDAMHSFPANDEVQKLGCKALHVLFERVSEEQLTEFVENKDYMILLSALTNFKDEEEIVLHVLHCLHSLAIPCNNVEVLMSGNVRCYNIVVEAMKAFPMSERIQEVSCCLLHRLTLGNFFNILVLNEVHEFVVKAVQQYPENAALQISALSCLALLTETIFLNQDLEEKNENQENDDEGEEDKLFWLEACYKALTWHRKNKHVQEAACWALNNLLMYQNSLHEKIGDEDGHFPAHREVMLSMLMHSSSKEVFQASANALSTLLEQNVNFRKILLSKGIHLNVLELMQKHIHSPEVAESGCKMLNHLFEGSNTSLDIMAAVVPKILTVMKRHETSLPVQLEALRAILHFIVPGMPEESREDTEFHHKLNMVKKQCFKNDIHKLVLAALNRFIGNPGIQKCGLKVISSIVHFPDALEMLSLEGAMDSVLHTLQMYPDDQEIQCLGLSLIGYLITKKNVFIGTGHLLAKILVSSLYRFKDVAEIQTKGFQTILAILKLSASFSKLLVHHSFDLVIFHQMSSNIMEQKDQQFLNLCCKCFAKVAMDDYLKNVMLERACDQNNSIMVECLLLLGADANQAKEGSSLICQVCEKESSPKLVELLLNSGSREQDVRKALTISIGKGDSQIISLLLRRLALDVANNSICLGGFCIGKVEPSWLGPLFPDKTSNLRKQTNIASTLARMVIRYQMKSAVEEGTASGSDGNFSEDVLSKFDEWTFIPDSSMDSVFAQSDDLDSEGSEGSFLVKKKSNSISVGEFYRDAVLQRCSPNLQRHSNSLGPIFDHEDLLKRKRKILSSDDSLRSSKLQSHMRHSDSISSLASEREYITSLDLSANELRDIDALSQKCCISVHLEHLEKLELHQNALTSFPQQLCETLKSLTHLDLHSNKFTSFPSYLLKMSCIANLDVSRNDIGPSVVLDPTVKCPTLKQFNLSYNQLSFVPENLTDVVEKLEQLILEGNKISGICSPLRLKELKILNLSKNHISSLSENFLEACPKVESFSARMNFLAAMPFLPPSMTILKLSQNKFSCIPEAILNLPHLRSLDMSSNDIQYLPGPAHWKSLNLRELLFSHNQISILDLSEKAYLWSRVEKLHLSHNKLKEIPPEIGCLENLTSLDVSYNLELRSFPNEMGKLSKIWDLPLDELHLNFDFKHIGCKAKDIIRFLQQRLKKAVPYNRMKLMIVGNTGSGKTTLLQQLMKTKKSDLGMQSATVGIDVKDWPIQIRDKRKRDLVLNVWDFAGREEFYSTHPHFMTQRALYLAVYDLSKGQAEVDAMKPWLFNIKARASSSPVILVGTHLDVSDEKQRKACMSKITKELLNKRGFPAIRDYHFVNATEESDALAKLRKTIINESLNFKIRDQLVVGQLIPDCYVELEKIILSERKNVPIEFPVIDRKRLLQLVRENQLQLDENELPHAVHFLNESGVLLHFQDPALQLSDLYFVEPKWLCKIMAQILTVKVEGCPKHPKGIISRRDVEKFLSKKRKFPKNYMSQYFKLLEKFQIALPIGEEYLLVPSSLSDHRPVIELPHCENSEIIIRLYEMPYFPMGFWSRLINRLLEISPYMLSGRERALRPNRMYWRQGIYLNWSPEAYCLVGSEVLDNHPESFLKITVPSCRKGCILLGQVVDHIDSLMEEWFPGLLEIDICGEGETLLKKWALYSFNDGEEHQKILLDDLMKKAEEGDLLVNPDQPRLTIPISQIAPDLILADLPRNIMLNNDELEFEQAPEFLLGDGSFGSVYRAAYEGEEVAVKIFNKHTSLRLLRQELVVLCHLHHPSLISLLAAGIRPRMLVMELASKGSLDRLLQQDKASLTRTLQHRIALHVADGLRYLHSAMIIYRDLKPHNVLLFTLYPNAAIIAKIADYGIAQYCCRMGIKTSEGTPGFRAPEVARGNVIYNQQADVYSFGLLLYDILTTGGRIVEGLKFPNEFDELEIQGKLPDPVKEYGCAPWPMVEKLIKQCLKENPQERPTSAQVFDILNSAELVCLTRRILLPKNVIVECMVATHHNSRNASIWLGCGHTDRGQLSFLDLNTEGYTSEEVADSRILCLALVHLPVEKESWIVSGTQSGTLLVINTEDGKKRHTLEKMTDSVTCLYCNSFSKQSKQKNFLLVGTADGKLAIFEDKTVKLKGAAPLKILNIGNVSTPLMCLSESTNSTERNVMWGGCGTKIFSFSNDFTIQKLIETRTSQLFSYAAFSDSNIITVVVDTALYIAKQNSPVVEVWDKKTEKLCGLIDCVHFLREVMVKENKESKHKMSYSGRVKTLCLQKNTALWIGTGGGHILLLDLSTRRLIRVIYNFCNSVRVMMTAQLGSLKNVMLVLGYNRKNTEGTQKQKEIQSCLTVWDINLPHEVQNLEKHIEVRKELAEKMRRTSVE
Protocol: as §1

CDK5 = molecular target: T7, CDK5 (Homo sapiens, UniProt Q00535)
T7 construct: endogenous in cells; host or cells: K562
T7 sequence (Q00535 whole entry): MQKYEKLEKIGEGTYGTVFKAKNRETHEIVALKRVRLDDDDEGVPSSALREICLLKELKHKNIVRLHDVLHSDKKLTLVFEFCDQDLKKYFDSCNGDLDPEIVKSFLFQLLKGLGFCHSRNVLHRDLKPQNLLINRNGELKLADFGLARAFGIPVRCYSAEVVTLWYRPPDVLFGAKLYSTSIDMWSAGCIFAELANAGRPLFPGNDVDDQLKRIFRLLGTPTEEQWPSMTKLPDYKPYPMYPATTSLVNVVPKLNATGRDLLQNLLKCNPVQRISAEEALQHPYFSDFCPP
Protocol: as §1

CAMKK1 = molecular target: T8, CAMKK1 (Homo sapiens, UniProt Q8N5S9)
T8 construct: endogenous in cells; host or cells: K562
T8 sequence (Q8N5S9 whole entry): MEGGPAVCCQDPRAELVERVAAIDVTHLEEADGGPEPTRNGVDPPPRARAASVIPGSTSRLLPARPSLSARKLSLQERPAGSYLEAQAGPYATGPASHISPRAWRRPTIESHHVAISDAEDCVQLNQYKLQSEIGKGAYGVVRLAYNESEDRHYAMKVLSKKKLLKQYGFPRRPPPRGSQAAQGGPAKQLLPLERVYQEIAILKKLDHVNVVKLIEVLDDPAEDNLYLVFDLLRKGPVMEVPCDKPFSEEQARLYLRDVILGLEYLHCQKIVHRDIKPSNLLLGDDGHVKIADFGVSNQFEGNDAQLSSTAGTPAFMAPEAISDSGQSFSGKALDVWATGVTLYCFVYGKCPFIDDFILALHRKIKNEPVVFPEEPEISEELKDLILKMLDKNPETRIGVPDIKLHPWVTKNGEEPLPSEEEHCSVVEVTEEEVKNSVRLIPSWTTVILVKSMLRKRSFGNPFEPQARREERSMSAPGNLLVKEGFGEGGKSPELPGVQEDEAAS
Protocol: as §1

PLK4 = molecular target: T9, PLK4 (Homo sapiens, UniProt O00444)
T9 construct: endogenous in cells; host or cells: K562
T9 sequence (O00444 1-970): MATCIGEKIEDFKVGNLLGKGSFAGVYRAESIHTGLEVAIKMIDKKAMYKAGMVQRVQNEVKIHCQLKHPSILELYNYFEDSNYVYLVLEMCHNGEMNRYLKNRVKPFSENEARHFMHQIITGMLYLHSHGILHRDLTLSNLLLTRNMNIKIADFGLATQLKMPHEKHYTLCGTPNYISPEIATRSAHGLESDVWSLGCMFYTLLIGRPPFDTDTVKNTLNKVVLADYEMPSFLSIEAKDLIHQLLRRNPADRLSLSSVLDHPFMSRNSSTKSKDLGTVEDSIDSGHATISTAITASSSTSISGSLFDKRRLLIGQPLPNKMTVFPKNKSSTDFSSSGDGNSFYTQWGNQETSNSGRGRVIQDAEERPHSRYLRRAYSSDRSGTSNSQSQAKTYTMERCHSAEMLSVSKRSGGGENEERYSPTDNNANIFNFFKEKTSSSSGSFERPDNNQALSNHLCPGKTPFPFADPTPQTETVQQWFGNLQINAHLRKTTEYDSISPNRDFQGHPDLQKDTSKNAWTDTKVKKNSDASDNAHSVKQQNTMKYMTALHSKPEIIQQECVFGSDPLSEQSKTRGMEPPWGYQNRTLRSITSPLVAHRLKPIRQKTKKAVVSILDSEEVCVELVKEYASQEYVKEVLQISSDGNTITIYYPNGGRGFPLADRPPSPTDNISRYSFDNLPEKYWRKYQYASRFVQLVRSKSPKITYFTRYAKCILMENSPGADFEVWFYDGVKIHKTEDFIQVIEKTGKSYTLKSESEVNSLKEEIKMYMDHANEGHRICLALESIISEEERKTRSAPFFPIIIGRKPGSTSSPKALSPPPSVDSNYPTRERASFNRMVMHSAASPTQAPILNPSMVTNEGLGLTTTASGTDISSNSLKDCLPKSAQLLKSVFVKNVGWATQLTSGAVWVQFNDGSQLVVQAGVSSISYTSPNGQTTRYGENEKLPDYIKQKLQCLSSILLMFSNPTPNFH
Protocol: as §1

TGFBR2 = molecular target: T10, TGFBR2 (Homo sapiens, UniProt P37173)
T10 construct: endogenous in cells; host or cells: K562
Protocol: as §1

MINK1 = molecular target: T11, MINK1 (Homo sapiens, UniProt Q8N4C8)
T11 construct: endogenous in cells; host or cells: K562
Protocol: as §1

MAPK7 = molecular target: T12, MAPK7 (Homo sapiens, UniProt Q13164);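 as to 0.001 uM KAM: median log10 fold change of treatment over DMSO control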;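 as to 0.01 uM KAM: median log10 fold change of treatment over DMSO control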;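 as to 0.1 uM KAM: median log10 fold change of treatment over DMSO control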;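 as to 1 uM KAM: median log10 fold change of treatment over DMSO control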;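 as to 10 uM KAM: median log10 fold change of treatment over DMSO control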
T12 construct: endogenous in cells; host or cells: K562
Protocol: as §1

[1] = KAM 0.001-10 uM, read-out: RB50 (the source's name)
[2] = read-out: RB50 (the source's name)

N#CCc1ccc(Nc2nc(NCCCN)cc(Nc3cc(C4CC4)[nH]n3)n2)cc1 [KAM]
IC50 (TRRAP; [1]): > 10000 nM
0.001 uM KAM (TRRAP; relative to 0 uM KAM = 0): -0.07186
0.01 uM KAM (TRRAP; relative to 0 uM KAM = 0): 0.02458
0.1 uM KAM (TRRAP; relative to 0 uM KAM = 0): 0.0008026
1 uM KAM (TRRAP; relative to 0 uM KAM = 0): 0.06144
10 uM KAM (TRRAP; relative to 0 uM KAM = 0): -0.07955
IC50 (IRAK1; [1]): 6030 nM
0.001 uM KAM (IRAK1; relative to 0 uM KAM = 0): -0.01461
0.01 uM KAM (IRAK1; relative to 0 uM KAM = 0): -0.006177
0.1 uM KAM (IRAK1; relative to 0 uM KAM = 0): -0.1059
1 uM KAM (IRAK1; relative to 0 uM KAM = 0): -0.1722
10 uM KAM (IRAK1; relative to 0 uM KAM = 0): -0.3131
median Log10 fold change (DDR1; 0.001 uM KAM): -0.02436
median Log10 fold change (DDR1; 0.01 uM KAM): -0.004539
median Log10 fold change (DDR1; 0.1 uM KAM): -0.13
median Log10 fold change (DDR1; 1 uM KAM): -0.3025
median Log10 fold change (DDR1; 10 uM KAM): -0.3889
IC50 (DDR1; [2]): 1330 nM
IC50 (MAP4K4; [1]): > 10000 nM
0.001 uM KAM (MAP4K4; relative to 0 uM KAM = 0): -0.04181
0.01 uM KAM (MAP4K4; relative to 0 uM KAM = 0): -0.007384
0.1 uM KAM (MAP4K4; relative to 0 uM KAM = 0): -0.1078
1 uM KAM (MAP4K4; relative to 0 uM KAM = 0): -0.1201
10 uM KAM (MAP4K4; relative to 0 uM KAM = 0): -0.1434
median Log10 fold change (STK38; 0.001 uM KAM): -0.121
median Log10 fold change (STK38; 0.01 uM KAM): -0.04373
median Log10 fold change (STK38; 0.1 uM KAM): -0.1647
median Log10 fold change (STK38; 1 uM KAM): -0.3238
median Log10 fold change (STK38; 10 uM KAM): -0.6242
IC50 (STK38; [2]): 752 nM
IC50 (LRRK2; [1]): > 10000 nM
0.001 uM KAM (LRRK2; relative to 0 uM KAM = 0): -0.05098
0.01 uM KAM (LRRK2; relative to 0 uM KAM = 0): -0.01752
0.1 uM KAM (LRRK2; relative to 0 uM KAM = 0): 0.02155
1 uM KAM (LRRK2; relative to 0 uM KAM = 0): 0.06199
10 uM KAM (LRRK2; relative to 0 uM KAM = 0): -0.09009
median Log10 fold change (CDK5; 0.001 uM KAM): 0.003574
median Log10 fold change (CDK5; 0.01 uM KAM): 0.001841
median Log10 fold change (CDK5; 0.1 uM KAM): -0.2018
median Log10 fold change (CDK5; 1 uM KAM): -0.5013
median Log10 fold change (CDK5; 10 uM KAM): -0.5902
IC50 (CDK5; [2]): 298 nM
median Log10 fold change (CAMKK1; 0.001 uM KAM): -0.02592
median Log10 fold change (CAMKK1; 0.01 uM KAM): -0.02355
median Log10 fold change (CAMKK1; 0.1 uM KAM): -0.2718
median Log10 fold change (CAMKK1; 1 uM KAM): -0.415
median Log10 fold change (CAMKK1; 10 uM KAM): -0.4583
IC50 (CAMKK1; [2]): 248 nM
median Log10 fold change (PLK4; 0.001 uM KAM): -0.0157
median Log10 fold change (PLK4; 0.01 uM KAM): 0.006981
median Log10 fold change (PLK4; 0.1 uM KAM): -0.1724
median Log10 fold change (PLK4; 1 uM KAM): -0.3044
median Log10 fold change (PLK4; 10 uM KAM): -0.3267
IC50 (PLK4; [2]): 1400 nM
median Log10 fold change (TGFBR2; 0.001 uM KAM): 0.03003
median Log10 fold change (TGFBR2; 0.01 uM KAM): -0.09645
median Log10 fold change (TGFBR2; 0.1 uM KAM): -0.3569
median Log10 fold change (TGFBR2; 1 uM KAM): -0.3895
median Log10 fold change (TGFBR2; 10 uM KAM): -0.4032
IC50 (TGFBR2; [2]): 117 nM
median Log10 fold change (MINK1; 0.001 uM KAM): -0.05922
median Log10 fold change (MINK1; 0.01 uM KAM): -0.00678
median Log10 fold change (MINK1; 0.1 uM KAM): -0.2189
median Log10 fold change (MINK1; 1 uM KAM): -0.4489
median Log10 fold change (MINK1; 10 uM KAM): -0.4879
IC50 (MINK1; [2]): 329 nM
IC50 (MAPK7; [1]): > 10000 nM
0.001 uM KAM (MAPK7; relative to 0 uM KAM = 0): -0.02869
0.01 uM KAM (MAPK7; relative to 0 uM KAM = 0): 0.01229
0.1 uM KAM (MAPK7; relative to 0 uM KAM = 0): -0.142
1 uM KAM (MAPK7; relative to 0 uM KAM = 0): -0.1326
10 uM KAM (MAPK7; relative to 0 uM KAM = 0): -0.1898
